Assay [1] is described as follows: Ratio of kcat and Km was determined.
The nature of assay [2]: Kinetic parameter Kun for hydrolysis at 25 degrees Celsius using phosphate buffer in reaction with 3-[2-(4-imidazolyl)ethyl] […].
Assay [3] in a line: Kinetic parameter kcat for hydrolysis at 25 degrees Celsius using phosphate buffer in reaction with 3-[2-(4-imidazolyl)ethyl] […].
The nature of assay [4]: Kinetic parameter Km for hydrolysis at 25 degrees Celsius using phosphate buffer in reaction with 3-[2-(4-imidazolyl)ethyl] […].
A short description of assay [5]: Ratio of kcat and kun was determined.

The term Km denotes the substrate concentration at which the rate is half of its maximum.

On to `CC(=O)N[C@@H](Cc1ccccc1)C(=O)Oc1ccc([N+](=O)[O-])cc1`, for which the k cat/Km in assay [1] is 73.9 M⁻¹ s⁻¹. Also, the Kun in assay [2] stood at 0.000861 s⁻¹. In assay [3], this molecule showed a k cat of 0.011 s⁻¹. Moreover, the Km in assay [4] is 148 µM. Moreover, the k cat/Kuncat in assay [5] was 13.
On to `CC(C)(C)OC(=O)NCC(=O)Oc1ccc([N+](=O)[O-])cc1`, for which the k cat/Km in assay [1] was 80.5 M⁻¹ s⁻¹. In assay [2], this molecule had a Kun of 0.000129 s⁻¹. Besides, the k cat in assay [3] is 0.0312 s⁻¹. Besides, the Km in assay [4] was 387 µM. Besides, the k cat/Kuncat in assay [5] is 242.
On to `CC(=O)NC(C)C(=O)Oc1ccc([N+](=O)[O-])cc1` (stereo not given), for which, in assay [1], the k cat/Km was determined as 27.5 M⁻¹ s⁻¹. In assay [2], the Kun was 0.00144 s⁻¹. For the same molecule, the k cat in assay [3] came out at 0.0371 s⁻¹. In addition, in assay [4], the Km amounted to 1350 µM. In addition, in assay [5], the k cat/Kuncat came out at 26.
Taken in the same sequence, the figures for `CC(=O)N[C@H](Cc1ccccc1)C(=O)Oc1ccc([N+](=O)[O-])cc1` were 49.7 M⁻¹ s⁻¹, 0.000861 s⁻¹, 0.0238 s⁻¹, 478 µM and 28.
Taken in the same sequence, the figures for `CC(=O)NCC(=O)Oc1ccc([N+](=O)[O-])cc1` were 35.4 M⁻¹ s⁻¹, 0.000562 s⁻¹, 0.0519 s⁻¹, 1470 µM and 92.

Values taken from ChEMBL document CHEMBL1126378, “Substrate selectivity of imidazole-appended dimethyl--cyclodextrin” (Bioorg Med Chem Lett, 1992).
